Assay results from patent US8389552B2, “(S)-6-(2-(4-(cyclobutylsulfonyl)-1H-imidazol-1-yl)-3-cyclopentylpropanamido)nicotinic acid useful as a glucokinase activator” (Pfizer Inc., priority 2009, dated 2013).
Like-named read-outs stand apart in the source and are kept apart here.

Biological target: T1, Full-length glucokinase (beta cell isoform) (Homo sapiens, UniProt P35557)
T1 construct: Full-length glucokinase (beta cell isoform) was His-tagged at N-terminus; His tag (N); made in house; host or cells: E. coli BL21(DE3), pBCGK vector
T1 sequence (P35557 1-465): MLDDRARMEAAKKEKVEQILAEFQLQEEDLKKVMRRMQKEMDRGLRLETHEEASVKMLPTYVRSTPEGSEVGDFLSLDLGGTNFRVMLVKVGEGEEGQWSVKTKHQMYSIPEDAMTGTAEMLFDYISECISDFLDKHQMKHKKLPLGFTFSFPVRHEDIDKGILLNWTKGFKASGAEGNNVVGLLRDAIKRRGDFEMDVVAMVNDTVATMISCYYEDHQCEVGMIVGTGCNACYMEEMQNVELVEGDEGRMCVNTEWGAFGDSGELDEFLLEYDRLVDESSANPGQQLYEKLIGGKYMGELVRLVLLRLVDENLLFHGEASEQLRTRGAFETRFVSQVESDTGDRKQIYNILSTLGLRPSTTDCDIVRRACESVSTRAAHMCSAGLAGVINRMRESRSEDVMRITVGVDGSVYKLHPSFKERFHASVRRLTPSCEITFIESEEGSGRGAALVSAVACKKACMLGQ
Assay: Glucokinase activation assay (PK/LDH-coupled, NADH depletion at 340 nm)
Type: biochemical
Conditions: for Emax: % max activation = (Va/Vo−1)×100 from fit, pH 7.1, read-out: Maximum Activation (%)
Procedure: Full-length glucokinase (beta cell isoform) was His-tagged at N-terminus and purified by a Ni column followed by size exclusion chromatography. A 320 mL column was packed in house using Superdex75 (Amersham Pharmacia, Carlsbad, Calif.) preparation grade resin. Glucose was obtained from Calbiochem (San Diego, Calif.) and other reagents were purchased from Sigma-Aldrich (St. Louis, Mo.).
All assays were performed in a Corning 384-well plate using Spectramax PLUS spectrophotometer (Molecular Devices, Sunnyvale, Calif.) at room temperature. The final assay volume was 40 ∥L. The buffer conditions used in this assay were as follows: 50 mM HEPES, 5 mM glucose, 2.5 mM ATP, 3.5 mM MgCl2, 0.7 mM NADH, 2 mM dithiothreitol, 1 unit/mL pyruvate kinase/lactate dehydrogenase (PK/LDH), 0.2 mM phosphoenolpyruvate, and 25 mM KCl. The buffer pH was 7.1. The test compound in dimethylsulfoxide solution was added to the buffer and mixed by a plate shaker for 7.5 minutes. The final concentration of dimethylsulfoxide introduced into the assay was 0.25%.
Glucokinase was added to the buffer mixture to initiate the reaction in the presence and absence of compound. The reaction was monitored by absorbance at 340 nm due to the depletion of NADH. The initial reaction velocity was measured by the slope of a linear time course of 0-300 seconds. The percentage of maximum activation was calculated by the following equation: % Maximum Activation=(Va/Vo−1)×100; wherein each of Va and Vo is defined as the initial reaction velocity in the presence and absence of the tested compound, respectively.
The glucokinase activities were measured as a function of compound concentrations.

[1] = 5 mM glucose, 2.5 mM ATP, pH 7.1, room temperature, single value or range where N>1, read-out: EC50
[2] = 5 mM glucose, single value or range where N>1

EC50 [1] [µM] | Emax [2] [%] | Structure (SMILES) | EC50 [µM]
23 | 125 | Cn1ccc(NC(=O)[C@H](CC2CCCC2)n2cnc(S(C)(=O)=O)c2)n1 [Example 36, (S)-3-cyclopentyl-N-(1-methyl-1H-pyrazol-3-yl)-2-(4-(methylsulfonyl)-1H-imidazol-1-yl)propanamide] | 
7 | 145 | CS(=O)(=O)c1cnn([C@@H](CC2CCCC2)C(=O)Nc2ccc(C(=O)O)cn2)c1 [Example 24, (S)-6-(3-cyclopentyl-2-(4-(methylsulfonyl)-1H-pyrazol-1-yl)propanamido)nicotinic acid] | 
4 to 5.4 | 92 to 95 | Cc1ccc(NC(=O)[C@H](CC2CCCC2)n2cc(C)c(C(F)(F)F)n2)nc1 [Example 93, (S)-3-cyclopentyl-2-(4-methyl-3-(trifluoromethyl)-1H-pyrazol-1-yl)-N-(5-methylpyridin-2-yl)propanamide] | 
0.7 | 150 | O=C(O)c1ccc(NC(=O)[C@H](CC2CCCC2)n2cnc(C(F)(F)F)n2)nc1 [Example 88, (S)-6-(3-cyclopentyl-2-(3-(trifluoromethyl)-1H-1,2,4-triazol-1-yl)propanamido)nicotinic acid] | 
25 | 144 | CCS(=O)(=O)c1cnn([C@@H](CC2CCCC2)C(=O)Nc2cnc(C)cn2)c1 [Example 22, (S)-3-cyclopentyl-2-(4-(ethylsulfonyl)-1H-pyrazol-1-yl)-N-(5-methylpyrazin-2-yl)propanamide] | 
3.8 | 100 | Cc1ccc(NC(=O)[C@H](CC2CCCC2)n2cc(S(C)(=O)=O)cn2)nc1 [Example 8, (S)-3-cyclopentyl-N-(5-methylpyridin-2-yl)-2-(4-(methylsulfonyl)-1H-pyrazol-1-yl)propanamide] | 
3.9 | 116 | Cc1ccc(NC(=O)[C@H](CC2CCCC2)n2cnc(S(C)(=O)=O)n2)nc1 [Example 25, (S)-3-cyclopentyl-N-(5-methylpyridin-2-yl)-2-(3-(methylsulfonyl)-1H-1,2,4-triazol-1-yl)propanamide] | 
4.6 | 112 | O=C(Nc1ccc(CP(=O)(O)O)cn1)[C@H](CC1CCCC1)n1cnc(C(F)(F)F)c1 [Example 60, (S)-(6-(3-cyclopentyl-2-(4-(trifluoromethyl)-1H-imidazol-1-yl)propanamido)pyridin-3-yl)methylphosphonic acid] | 
17 | 112 | CC(C)S(=O)(=O)c1cn([C@@H](CC2CCCC2)C(=O)Nc2ccn(C)n2)cn1 [Example 29, (S)-3-cyclopentyl-2-(4-(isopropylsulfonyl)-1H-imidazol-1-yl)-N-(1-methyl-1H-pyrazol-3-yl)propanamide] | 
60 | 89 | CC(C)S(=O)(=O)c1cnn([C@@H](CC2CCCC2)C(=O)Nc2ccon2)c1 [Example 15, (S)-3-cyclopentyl-2-(4-(isopropylsulfonyl)-1H-pyrazol-1-yl)-N-(isoxazol-3-yl)propanamide] | 
> 100 |  | CC(C)S(=O)(=O)c1cnn([C@@H](CC2CCCC2)C(=O)Nc2ncccn2)c1 [Example 5, (S)-3-cyclopentyl-2-(4-(isopropylsulfonyl)-1H-pyrazol-1-yl)-N-(pyrimidin-2-yl)propanamide] | 
2 | 161 | Cc1cnc(NC(=O)[C@H](CC2CCCC2)n2cnc(C(F)(F)F)c2)cn1 [Example 45, (S)-3-cyclopentyl-N-(5-methylpyrazin-2-yl)-2-(4-(trifluoromethyl)-1H-imidazol-1-yl)propanamide] | 
28 | 136 | Cc1ccc(NC(=O)[C@H](CC2CCCC2)n2ncc(C(F)(F)F)c2C)nc1 [Example 97, (S)-3-cyclopentyl-2-(5-methyl-4-(trifluoromethyl)-1H-pyrazol-1-yl)-N-(5-methylpyridin-2-yl)propanamide] | 
6.7 to 8.8 | 90 to 113 | CS(=O)(=O)c1ccc(NC(=O)[C@H](CC2CCCC2)n2cnc(C(F)(F)F)c2)nc1 [Example 51, (S)-3-cyclopentyl-N-[5-(methylsulfonyl)pyridin-2-yl]-2-[4-(trifluoromethyl)-1H-imidazol-1-yl]propanamide] | 
> 100 |  | Cn1ccc(NC(=O)[C@H](CC2CCCC2)n2ccc(C(F)(F)F)n2)n1 [Example 68, (S)-3-cyclopentyl-N-(1-methyl-1H-pyrazol-3-yl)-2-(3-(trifluoromethyl)-1H-pyrazol-1-yl)propanamide] | 
1.3 to 1.7 | 33 to 39 | CC(C)S(=O)(=O)c1cnn([C@@H](CC2CCCC2)C(=O)Nc2ccn(Cc3ccccc3)n2)c1 [Example 19, (S)—N-(1-benzyl-1H-pyrazol-3-yl)-3-cyclopentyl-2-(4-(isopropylsulfonyl)-1H-pyrazol-1-yl)propanamide] | 
0.8 to 2 | 51 to 78 | Cc1ccc(NC(=O)[C@H](CC2CCOCC2)n2cnc(C(F)(F)F)c2)nc1 [Example 75, (S)—N-(5-methylpyridin-2-yl)-3-(tetrahydro-2H-pyran-4-yl)-2-(4-(trifluoromethyl)-1H-imidazol-1-yl)propanamide] | 
18 | 138 | Cn1ccc(NC(=O)[C@H](CC2CCOCC2)n2cnc(C(F)(F)F)c2)n1 [Example 76, (S)—N-(1-methyl-1H-pyrazol-3-yl)-3-(tetrahydro-2H-pyran-4-yl)-2-(4-(trifluoromethyl)-1H-imidazol-1-yl)propanamide] | 
10 | 100 | Cc1cnc(NC(=O)[C@H](CC2CCCC2)n2cnc(S(=O)(=O)C(C)C)c2)cn1 [Example 30, (S)-3-cyclopentyl-2-(4-(isopropylsulfonyl)-1H-imidazol-1-yl)-N-(5-methylpyrazin-2-yl)propanamide] | 
0.3 to 0.6 | 38 to 50 | Cc1ccc(NC(=O)[C@H](CC2CCCC2)n2cc(S(=O)(=O)C(C)C)cn2)nc1 [Example 1, (S)-3-cyclopentyl-2-(4-(isopropylsulfonyl)-1H-pyrazol-1-yl)-N-(5-methylpyridin-2-yl)propanamide] | 
15.7 | 24 | CCn1ccc(NC(=O)[C@H](CC2CCCC2)n2cc(S(=O)(=O)C(C)C)cn2)n1 [Example 18, (S)-3-cyclopentyl-N-(1-ethyl-1H-pyrazol-3-yl)-2-(4-(isopropylsulfonyl)-1H-pyrazol-1-yl)propanamide] | 
4.8 | 56 | CS(=O)(=O)c1cnn([C@@H](CC2CCCC2)C(=O)Nc2ccc(C(F)(F)F)cn2)c1 [Example 10, (S)-3-cyclopentyl-2-(4-(methylsulfonyl)-1H-pyrazol-1-yl)-N-(5-(trifluoromethyl)pyridin-2-yl)propanamide] | 
> 100 |  | Cc1ccc(NC(=O)[C@H](Cn2cccn2)n2cnc(C(F)(F)F)c2)nc1 [Example 83, (S)—N-(5-methylpyridin-2-yl)-3-(1H-pyrazol-1-yl)-2-(4-(trifluoromethyl)-1H-imidazol-1-yl)propenamide] | 
2.3 | 160 | CS(=O)(=O)c1cn([C@@H](CC2CCCC2)C(=O)Nc2ccc(C(=O)O)cn2)cn1 [Example 38, (S)-6-(3-cyclopentyl-2-(4-(methylsulfonyl)-1H-imidazol-1-yl)propanamido)nicotinic acid] | 
8.7 | 115 | Cc1cnc(NC(=O)[C@H](CC2CCOCC2)n2cnc(C(F)(F)F)c2)cn1 [Example 74, (S)—N-(5-methylpyrazin-2-yl)-3-(tetrahydro-2H-pyran-4-yl)-2-(4-(trifluoromethyl)-1H-imidazol-1-yl)propanamide] | 
8.2 | 23 | CC(C)S(=O)(=O)c1cnn([C@@H](CC2CCCC2)C(=O)Nc2ccc3ccccc3n2)c1 [Example 17, (S)-3-cyclopentyl-2-(4-(isopropylsulfonyl)-1H-pyrazol-1-yl)-N-(quinolin-2-yl)propanamide] | 

Structure (SMILES) | EC50 [1] [µM] | Emax [2] [%] | EC50 [µM]
CCOP(=O)(Cc1ccc(NC(=O)[C@H](CC2CCCC2)n2cnc(C(F)(F)F)c2)nc1)OCC [Example 58, (S)-diethyl(6-(3-cyclopentyl-2-(4-(trifluoromethyl)-1H-imidazol-1-yl)propanamido)pyridin-3-yl)methylphosphonate] |  | 129 | 3.4
